Counter-ions that a name gives are not always drawn.

Series [1] deals with T1, isolated trachea of a guinea pig (Cavia porcellus, UniProt Q8K4Z4).
T1 construct: isolated trachea of a guinea pig; from tissue; host or cells: guinea pig isolated trachea
Put plainly: pA2 measurement of beta-blocking activity on the isolated trachea of a guinea pig. In kind it is cell-based. The protocol:
(§1) The PA2 is the co-logarithm of the concentration of antagonist in the presence of which it requires twice as much agonist as in its absence in order to achieve the same effect; see, on this subject: Calculation of the PAx, Technical Leaflet No. 16, J. Pharmacol. Paris 1971, 2, 3, 373-380. The PA2 was measured on the isolated auricle of a guinea pig and on the isolated trachea of a guinea pig. The product used by way of comparison is the following compound: [drawing 23]

The target of series [2] is T2, isolated trachea of a guinea pig (Cavia porcellus).
T2 construct: isolated trachea of a guinea pig; from tissue; host or cells: guinea pig isolated trachea
T2 sequence (Q8K4Z4 whole entry): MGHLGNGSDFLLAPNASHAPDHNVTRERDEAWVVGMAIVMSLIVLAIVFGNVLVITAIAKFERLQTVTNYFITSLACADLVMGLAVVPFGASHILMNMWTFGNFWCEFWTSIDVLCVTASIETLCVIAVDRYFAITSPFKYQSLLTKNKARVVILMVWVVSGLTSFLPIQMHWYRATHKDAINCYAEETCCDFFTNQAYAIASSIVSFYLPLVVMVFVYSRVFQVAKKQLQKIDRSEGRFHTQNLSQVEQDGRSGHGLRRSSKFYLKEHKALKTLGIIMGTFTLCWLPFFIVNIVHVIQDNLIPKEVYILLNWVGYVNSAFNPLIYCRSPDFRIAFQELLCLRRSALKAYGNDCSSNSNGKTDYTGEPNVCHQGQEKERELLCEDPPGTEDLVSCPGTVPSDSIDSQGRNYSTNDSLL
The description is as above. The format is cell-based. The protocol:
as §1

Series [3] deals with T3, isolated auricle of a guinea pig (Cavia porcellus).
T3 construct: isolated auricle of a guinea pig; from tissue; host or cells: guinea pig isolated auricle (atrium)
T3 sequence (H0W3H1 1-470): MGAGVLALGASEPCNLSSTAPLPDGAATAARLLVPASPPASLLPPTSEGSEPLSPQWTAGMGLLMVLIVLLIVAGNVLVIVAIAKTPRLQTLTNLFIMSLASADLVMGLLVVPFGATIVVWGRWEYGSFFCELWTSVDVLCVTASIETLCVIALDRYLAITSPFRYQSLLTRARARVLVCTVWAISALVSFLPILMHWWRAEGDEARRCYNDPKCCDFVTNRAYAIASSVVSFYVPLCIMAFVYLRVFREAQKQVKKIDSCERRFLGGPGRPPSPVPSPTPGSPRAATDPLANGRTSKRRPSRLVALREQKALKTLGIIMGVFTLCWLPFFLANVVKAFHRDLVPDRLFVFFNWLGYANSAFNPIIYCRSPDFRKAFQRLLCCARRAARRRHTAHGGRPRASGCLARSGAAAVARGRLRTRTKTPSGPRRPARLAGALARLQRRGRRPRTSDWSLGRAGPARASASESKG
Put plainly: pA2 measurement of beta-blocking activity on the isolated auricle of a guinea pig. In kind it is cell-based. The conditions noted are these: chronotropic. The protocol: as §1

Series [4] deals with T4, isolated auricle of a guinea pig (Cavia porcellus, UniProt H0W3H1).
T4 construct: isolated auricle of a guinea pig; from tissue; host or cells: guinea pig isolated auricle (atrium)
T4 sequence (H0W3H1 1-470): as above
Described as above. In kind it is cell-based. To be noted: inotropic. The protocol:
as §1

For series [5] the following is noted: prior art; cited from earlier work.

T1 sequence (Q8K4Z4 whole entry): as the sequence (Q8K4Z4 whole entry) above

For the compound `C=CC(C)(C)OCC(O)CNC(C)(C)C` (stereo not drawn) [Comparison, reference compound], in series [1], the “Trachea pA2” value is 4.96.

As for `CC(=NOCC(O)CNC(C)(C)C)C1CC1` (stereo not drawn) [Compound No. 1, 1-N-tert.-Butylamino-3-(cyclopropyl-methylketoneoximino)-propan-2-ol], the Kb was 0.912 nM in series [2], 2 nM in series [3] and 1 nM in series [4].

For `CC(C)(C)NCC(O)CON=C(C1CC1)C1CC1` (stereo not drawn) [Compound No. 2, 1-N-tert.-Butylamino-3-(dicyclopropyl-ketoneoximino)-propan-2-ol], the Kb in series [3] was 5.01 nM; in series [4], 7.24 nM.

For the compound `CC(C)(C)NCC(O)COCC1CC1` (stereo not drawn) [compound 3, 1-N-tert.-Butylamino-3-cyclopropylmethoxy-propan-2-ol], the “Trachea pA2” value in series [1] came to 6.23. Moreover, in series [3], the Kb was 79.4 nM.

As to `CC(C)(C)NC[C@H](O)COc1nsnc1N1CCOCC1` [timolol maleate], the “undesirable secondary effects in treatment of glaucomas” value in series [5] was “bronchial disorders (asthma) or cardiovascular disorders (orthostatic hypotension and slowing down of the pulse rate)”.

The values are drawn from US4766151A, “Ethers and oxime ethers of alkylamino alcohols as medicaments and novel products, and processes for their preparation” (Laboratoires, P.O.S., priority 1982, dated 1988).
